Blank lines part the entries; values can stand above or below the compound they belong to. Peptide text beside a SMILES is read from it.
Tests used:
rats = assay: Single dose toxicity study in rat; assay type: in vivo; details: single oral dose 700 mg/kg
Procedure: Toxicity testing required about 5 g of the thiodipeptide, Ala-ΨS-Ser.tfa (trifluoroacetate salt), which was delivered to rats as test subjects.
Single oral dose of 700 mg/kg to 5 males and 5 females on day 1.
Test Substance Formulation: The dose formulation was successfully prepared using physiological saline as the vehicle. The concentration of the test substance was 140 mg/ml, dosed at a volume of 5 ml/kg, resulting in a dose of 700 mg/kg.

PepT1 [1] = target: T1, PepT1 (Oryctolagus cuniculus, UniProt P36836); assay: Uptake of [3H]-D-Phe-L-Gln in oocytes in competition with test compound (binding to PepT1)
T1 construct: expressed in transfected cells
T1 sequence (P36836 1-707): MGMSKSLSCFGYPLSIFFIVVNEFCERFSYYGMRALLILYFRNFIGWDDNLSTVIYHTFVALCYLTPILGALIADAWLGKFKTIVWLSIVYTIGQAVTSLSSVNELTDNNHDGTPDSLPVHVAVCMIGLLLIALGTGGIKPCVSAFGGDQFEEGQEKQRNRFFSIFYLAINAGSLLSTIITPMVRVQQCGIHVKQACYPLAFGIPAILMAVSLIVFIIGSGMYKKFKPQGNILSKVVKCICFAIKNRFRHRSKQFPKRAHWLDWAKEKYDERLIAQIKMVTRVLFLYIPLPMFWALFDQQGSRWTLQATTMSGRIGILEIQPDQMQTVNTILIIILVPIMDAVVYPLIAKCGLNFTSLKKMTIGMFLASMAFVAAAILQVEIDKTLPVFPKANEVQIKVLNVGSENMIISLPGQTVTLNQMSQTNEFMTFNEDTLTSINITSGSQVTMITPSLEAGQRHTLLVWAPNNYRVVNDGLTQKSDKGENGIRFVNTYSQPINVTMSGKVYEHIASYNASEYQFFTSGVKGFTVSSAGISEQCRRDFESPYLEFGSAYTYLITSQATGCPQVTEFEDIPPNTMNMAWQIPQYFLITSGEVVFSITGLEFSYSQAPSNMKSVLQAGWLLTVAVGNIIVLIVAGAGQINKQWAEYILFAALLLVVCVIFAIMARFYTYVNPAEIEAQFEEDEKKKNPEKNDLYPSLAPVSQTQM
Procedure: Uptake of the radiolabelled dipeptide [^3H]-D-Phe-L-Gln (17.4 Ci/mmole, custom synthesised, Cambridge Research Biochemicals, Stockton-on-Tees, UK) in competition with the compounds to be tested, was performed as previously described (Meredith et al. J. Physiol., 1998, 512, 629-634). Briefly, 5 oocytes were incubated at room temperature in 100 μL of uptake medium (95 mM NaCl, 2 mM KCl, 1 mM CaCl2, 0.42 mM MgCl2, 10 mM Tris/Mes pH 5.5) with tracer (0.4 μM) [^3H]-D-Phe-L-Gln with or without a test compound at the appropriate concentration. After incubation for one hour, the oocytes were washed sequentially five times in 1 mL of ice-cold uptake medium, then lysed individually with 100 μL 2% (w/v) SDS in vials, and liquid scintillation counted.
Quantitative binding data has been produced for a large number of thiodipeptide carriers with attached drug surrogates using the methodology described in Meredith et al., 1998, discussed supra, and is shown in Table 2 below, and in FIG. 7. Each of the thiopeptide carrier molecules shown is in accordance with the present invention, with each compound comprising a serine amino acid side chain group on the second amino acid residue.

Resistance to hydrolysis = assay type: in vitro ADME
PepT1 [2] = target: T1, PepT1; assay: Efflux / trans-stimulation assay in PepT1-expressing oocytes injected with [3H]-D-Phe-L-Gln; assay type: cell-based
Procedure: Efflux experiments were performed as described in Temple et al., J. Biol. Chem., 1998, 273, 20-22. Briefly, PepT1-expressing oocytes were micro-injected with 4.6 nl of [^3H]-D-Phe-L-Gln (17.4 Ci/mmole) and allowed to recover for 15 minutes. 5 oocytes were incubated in […] uptake solution (pH 5.5) containing a potential substrate (i.e. a thiodipeptide-drug analogue conjugate) at 10 mM, with a negative control (i.e. uptake solution pH 5.5) and a positive control (i.e. 20 mM dipeptide Gly-Gln in pH 5.5 uptake solution). After 90 minutes incubation at room temperature, 50 μL of the medium was removed and placed in a scintillation vial for counting. The oocytes were washed sequentially five times in 1 mL of ice-cold uptake medium, then lysed individually with 100 μL 2% (w/v) SDS in vials, and liquid scintillation counted.
Efflux of the radiolabelled dipeptide is a positive indication of active transport via PepT1.
In the assays carried out, the dipeptide Gly-Gln (which is known to be transported by PepT1) caused about 30% of labelled D-Phe-L-Gln to remain in the oocytes. At the same concentration, the test substrates (the conjugates being tested) are assessed as follows:—
<(measureable efflux, but less transport than Gly-Gln control, with ≧50% of D-Phe-L-Gln remaining)
=(efflux similar to the effect of Gly-Gln, i.e. 25-50% of labelled D-Phe-L-Gln remaining)
>(more efflux than Gly-Gln, i.e. <25% of labelled D-Phe-L-Gln remaining)
There are no reports in the literature of thiodipeptides attached to drugs or drug analogues, and therefore no examples of such conjugates being actively transported.

PepT1 [3] = target: T2, PepT1 (Rattus norvegicus, UniProt P51574); assay: In vivo transport across the gut wall, rat jejenum, HPLC analysis; details: 1 mM
T2 construct: using rat jejenum; from tissue; host or cells: rat jejunum
T2 sequence (P51574 1-710): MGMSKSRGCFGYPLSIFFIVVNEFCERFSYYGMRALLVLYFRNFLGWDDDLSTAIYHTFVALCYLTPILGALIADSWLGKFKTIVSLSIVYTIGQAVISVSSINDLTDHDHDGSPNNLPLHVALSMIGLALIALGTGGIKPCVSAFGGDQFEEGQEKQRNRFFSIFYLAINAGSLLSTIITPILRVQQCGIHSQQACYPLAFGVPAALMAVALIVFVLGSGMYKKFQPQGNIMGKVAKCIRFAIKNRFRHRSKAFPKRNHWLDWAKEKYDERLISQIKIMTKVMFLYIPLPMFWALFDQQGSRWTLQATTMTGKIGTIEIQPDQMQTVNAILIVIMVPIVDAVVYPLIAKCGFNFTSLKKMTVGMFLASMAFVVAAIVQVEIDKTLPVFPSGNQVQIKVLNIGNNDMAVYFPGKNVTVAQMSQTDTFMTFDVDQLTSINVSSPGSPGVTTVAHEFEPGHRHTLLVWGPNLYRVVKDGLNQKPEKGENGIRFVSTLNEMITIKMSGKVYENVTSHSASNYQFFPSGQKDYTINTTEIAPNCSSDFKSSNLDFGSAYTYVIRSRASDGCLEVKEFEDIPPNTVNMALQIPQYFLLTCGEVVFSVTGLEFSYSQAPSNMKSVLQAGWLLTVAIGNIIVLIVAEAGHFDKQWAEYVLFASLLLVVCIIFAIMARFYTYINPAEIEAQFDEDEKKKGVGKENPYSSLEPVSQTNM
Text: (§1) In vivo transport experiments, using the methodology described in Lister et al. (J. Physiol., 1995, 484.1, 173-182), were used to investigate the importance of the thio group in the compounds according to the invention during transport of thiopeptides across the gut wall. […] For the purposes of this experiment, this thiopeptide was not conjugated to a drug analogue molecule. Then, using rat jejenum, they carried out direct measurements of transport of this test thiopeptide across the gut wall. […]

PepT1 [4] = assay: as above
Text: as §1

SMILES: CC(N)C(=S)N[C@@H](CO)C(=O)O.O=C(O)C(F)(F)F (stereo partly shown) [Ala-ΨS-Ser.tfa]
Intercurrent deaths (rats; 15 days): no intercurrent deaths | Clinical observations (rats; daily for 15 days): no treatment related findings | Bodyweights (rats; day 15): All animals had gained weight | Macroscopic findings at scheduled termination (rats; day 15): no macroscopic findings

substrate for PepT1 (PepT1 [1]): substrate for PepT1 | Ki (PepT1 [1]; competition with 0.4 μM [3H]-D-Phe-L-Gln, oocytes, pH 5.5, one hour): 1070 µM
SMILES: CC(N)C(=S)NC(COCc1ccccc1)C(=O)O [D-Ala-ΨS-Ser(OBn)]
resistance to hydrolysis (Resistance to hydrolysis): more hydrolysis resistant than its corresponding L-isomer

cpm remaining in oocytes (PepT1 [2]; 10 mM, average from 5 experiments): 1347 (+/−126) cpm | efflux (PepT1 [2]; at 10 mM): 72% | labelled D-Phe-L-Gln remaining in the oocytes (PepT1 [2]; positive control Gly-Gln, pH 5.5, 90 minutes): about 30%
SMILES: NCC(=O)N[C@@H](CCC(N)=O)C(=O)O [Gly-Gln] (H-Gly-Gln-OH)

transport rate relative to control dipeptide D-Phe-L-Gln (PepT1 [3]): about 13 times | resistance to peptidases of the small intestine (PepT1 [4]): resistant to the peptidases
SMILES: C[C@H](NC(=S)[C@@H](N)Cc1ccccc1)C(=O)O [thiopeptide analogue of L-Phe-L-Ala, Phe-ΨS-Ala]
transport rate (PepT1 [3]): 3.09 (+/−0.047) micromol/min/g of whole dry intestine

Source: US8772248B2, “Drug delivery system” (Keele University, priority 2004, dated 2014)
